Data published in US5763441A, “Compounds for the treatment of disorders related to vasculogenesis and/or angiogenesis” (Sugen, Inc., priority 1995, dated 1998).

Tests used:
[1] = tested on: VEGF-induced "reddening" response and subsequent swelling (FLK-1 receptor); assay: In vivo VEGF pellet model; set-up: species or system nude mice (Balb/C athymic nu/nu); details: scored at 24 hours and 48 hours; drug in methylcellulose disc near VEGF pellet
Excerpt: In this model, VEGF is packaged into a time-release pellet and implanted subcutaneously on the abdomen of nude mice to induce a `reddening` response and subsequent swelling around the pellet. Potential FLK-1 inhibitors may then be implanted in methylcellulose near the VEGF pellet ito determine whether such inhibitor may be used to inhibit the "reddening" response and subsequent swelling.
1) VEGF--human recombinant lyophilized product is commercially may be obtained from Peprotech, Inc., Princeton Business Park, G2; P.O. box 275, Rocky Hill, N.J. 08553.
2) VEGF packaged into 21 day release pellets were obtained from Innovative Research of America, using patented matrix driven delivery system. Pellets were packaged at […], 0.21, or 2.1 μg VEGF/pellet. These doses approximate 10 and 100 ng/day release of VEGF. (Innovative Research of America, 3361 Executive Parkway, P.O. box 2746, Toledo, Ohio 43606)
Protocol. The following protocol was then followed to conduct the VEGF pellet model:
1) VEGF, purchased from Peprotech, was sent to Innovative Research for Custom Pellet preparation;
2) Methylcellulose prepared at 1.5% (w/v) in sterile water;
3) Drugs solublized in methanol (usual concentration range=10 to 20 mg/ml);
4) Place sterile parafilm in sterile 10 cm plates; […]
9) Mice were scored at 24 hours and 48 hours for reddening and swelling response. […]

FLK-1 receptor = target: T1, FLK-1 receptor (Mus musculus, UniProt P35918); assay: ELISA assay to measure kinase activity of FLK-1 receptor in FLK-1/NIH cells; type: cell-based, murine
T1 construct: expressed in transfected cells; host or cells: NIH3T3C7#3 cells (FLK-1 infected NIH3T3)
T1 sequence (P35918 20-1345): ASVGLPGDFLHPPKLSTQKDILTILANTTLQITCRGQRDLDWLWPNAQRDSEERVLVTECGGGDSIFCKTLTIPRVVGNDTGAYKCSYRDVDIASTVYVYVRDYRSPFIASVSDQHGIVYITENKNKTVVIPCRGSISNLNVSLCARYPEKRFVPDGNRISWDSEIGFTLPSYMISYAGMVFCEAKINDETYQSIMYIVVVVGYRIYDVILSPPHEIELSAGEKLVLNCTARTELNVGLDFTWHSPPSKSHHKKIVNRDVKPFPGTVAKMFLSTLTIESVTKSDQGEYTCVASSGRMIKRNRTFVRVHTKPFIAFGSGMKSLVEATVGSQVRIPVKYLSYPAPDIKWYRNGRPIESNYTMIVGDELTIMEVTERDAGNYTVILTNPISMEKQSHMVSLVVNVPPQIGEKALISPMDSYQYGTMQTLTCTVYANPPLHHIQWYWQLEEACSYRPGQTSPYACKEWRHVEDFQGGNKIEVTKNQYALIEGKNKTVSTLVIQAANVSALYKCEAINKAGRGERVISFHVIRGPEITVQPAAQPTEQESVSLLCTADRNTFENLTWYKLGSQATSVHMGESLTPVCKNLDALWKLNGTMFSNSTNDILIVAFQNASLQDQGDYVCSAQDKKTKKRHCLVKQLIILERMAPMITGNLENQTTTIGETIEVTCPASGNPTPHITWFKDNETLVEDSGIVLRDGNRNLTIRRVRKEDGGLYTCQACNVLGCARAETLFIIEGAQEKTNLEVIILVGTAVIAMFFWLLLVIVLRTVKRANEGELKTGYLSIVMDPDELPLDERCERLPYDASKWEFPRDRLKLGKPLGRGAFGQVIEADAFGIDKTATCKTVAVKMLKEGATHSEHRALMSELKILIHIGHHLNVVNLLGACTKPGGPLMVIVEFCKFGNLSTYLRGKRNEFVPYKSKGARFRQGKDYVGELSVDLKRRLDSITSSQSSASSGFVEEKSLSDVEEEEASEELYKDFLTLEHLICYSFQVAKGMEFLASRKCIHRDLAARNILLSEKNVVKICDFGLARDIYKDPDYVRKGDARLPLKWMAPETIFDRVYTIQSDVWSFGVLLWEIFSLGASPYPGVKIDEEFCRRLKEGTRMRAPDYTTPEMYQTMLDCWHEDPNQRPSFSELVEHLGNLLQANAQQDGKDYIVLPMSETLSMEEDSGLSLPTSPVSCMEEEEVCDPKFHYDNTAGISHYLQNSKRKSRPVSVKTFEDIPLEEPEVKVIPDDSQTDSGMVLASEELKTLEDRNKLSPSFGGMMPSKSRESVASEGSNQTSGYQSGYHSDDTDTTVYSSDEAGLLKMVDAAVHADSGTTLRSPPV
Description: ELISA Assay To Measure Kinase Activity Of FLK-1 Receptor In FLK-1/NIH Cells
An ELISA assay was conducted to measure the kinase activity of the FLK-1 receptor and more specifically, the inhibition or activiation of protein tyrosine kinase activity on the FLK-1 receptor.
k. NIH3T3C7#3 Cells (FLK-1 infected cells);
Protocol. The following protocol was used to conduct the ELISA Assay:
1. Coat Corning 96-well elisa plates with 1.0 ug per well Cappel Anti-rabbit IgG antibody in 0.1M Na2CO3 pH 9.6. Bring final volume to 150 ul per well. Coat plates overnight at 4° C. Plates can be kept up to two weeks when stored at 4° C.
2. Grow cells in 30 ml of Growth media 9DMEM. 2.0 mM L-Glutamine, 10% FBS) until confluent in 150 cm tissue culture dishes at 37° C., 5% CO2.
3. Harvest cells by tyrpsination and seed in Corning 25850 polystyrene 96-well roundbottom cell plates, 25.000 cells/well in 200 uL of growth media.
4. Grow cells at least one day at 37° C., 5% CO2.
5. Wash cells with D-PBS 1X.
6. Add 200 ul/well of starvation media (DMEM, 2.0 mM l-Glutamine, 0.1% FBS). Incubate overnight at 37° C., 5% CO2.
7. Dilute Compounds/Extracts 1:20 in polyproplyene 96 well plates using starvation media. Dilute dimethylsulfoxide 1:20 for use in control wells.
8. Remove starvation media from 96 well cell culture plates and add 162 ul of fresh starvation media to each well.
9. Add 18 ul of 1:20 diluted Compound/Extract dilution (from step #7) to each well plus the 1:20 dimethylsulfoxide dilution to the control wells (+/-VEGF), for a final dilution of 1:200 after cell stimulation. Final dimethylsulfoxide is 0.5%. Incubate the plate at 37° C., 5% CO2 for two hours.
10. Remove unbound antibody from Elisa plates by inverting plate to remove liquid. Wash 3 times with TBSW+0.5% Ethanolamine, pH 7.0. Pat the plate on a paper towel to remove excess liquid and bubbles.
11. Block plates with TBSW+0.5% Ethanolamine, pH 7.0. 150 ul per well. Incubate plate thirty minutes while shaking on a microtiter plate shaker.
12. Wash plate 3 times as described in step 10.
13. Add 0.5 ug/well affinity purified anti-flk-1 polyclonal rabbit antiserum. Bring final volume to 150 ul/well with TBSW+0.5k Ethanolamine pH 7.0. Incubate plate for thirty minutes while shaking.
14. Add 180 μl starvation medium to the cells and stimulate cells with 20 ul/well 10.0 mM Sodium Ortho Vanadate and 500 ng/ml VEGF (resulting in a final concentration of 1.0 mM Sodium Ortho Vanadate and 50 ng/ml VEGF per well) for eight minutes at 37° C., 5% CO2. Negative control wells receive only starvation medium.
15. After eight minutes, media are removed from the cells and washed one time with 200 ul/well PBS.
16. Lyse cells in 150 ul/well HNTG while shaking at room temperature for five minutes. HNTG formulation includes sodium ortho vanadate, sodium pyro phosphate and EDTA.
17. Wash Elisa plate three times as described in step 10.
18. Transfer cell lysates from the cell plate to elisa plate and incubate while shaking for two hours. To transfer cell lysate pipette up and down while scrapping the wells.
19. Wash plate three times as described in step 10.
20. Incubate Elisa plate with 0.02 ug/well UB40 in TBSW+05% ethanolamine. Bring final volume to 150 ul/well. Incubate while shaking for 30 minutes.
21. Wash plate three times as described in step 10.
22. Incubate elisa plate with 1:10,000 diluted EIA grade Goat anti-mouse IgG conjugated horseradish peroxidase in TBSW+0.5% ethanolamine, pH 7.0. Bring final volume to 150 ul/well. Incubate while shaking for thirty minutes.
23. Wash plate as described in step 10.
24. Add 100 ul of ABTS/H202 solution to well. Incubate ten minutes while shaking.
25. Add 100 ul of 0.2M HCL for 0.1M HCL final to stop the colordevelopment reaction. Shake 1 minute at room temperature. Remove bubbles with slow stream of air and read the ELISA plate in an ELISA plate reader at 410 nm.

PC-3 = assay: Tumor xenograft growth inhibition, PC-3 (prostate); type: in vivo, human
Description: (§1) The ability of one of the compounds of the present invention, leflunomide (Compound 40), to inhibit ovarian, melanoma, prostate, lung and mammary tumor cell lines established as SC xenografts was examined. These studies were conducted using doses ranging from 12 to 20 mg/kg/day.
(§2) The tumor cells were implanted subcutaneously into the indicated strains of mice. Treatment was initiated on day 1 post implantation unless otherwise indicated (e.g. treatment of the SCID mouse related to the A375 melanoma cell line began on Day 9). Eight (8) to ten (10) mice comprised each test group.
(§3) Animals. Female athymic mice (BALB/c, nu/nu), BALB/c mice, Wistar rats and Fisher 344 rats were obtained from Simonsen Laboratories (Gilroy, Calif.). Female A/I mice were obtained from Jackson Laboratory (Bar Harbor, Me.). DA rats were obtained from B&K Universal, Inc. (Fremont, Calif.). Athymic R/Nu rats, DBA/2N mice, and BALB/c mice were obtained from Harlan Sprague Dawley (Indianapolis, Ind.). Female C57BL/6 mice were obtained from Taconic (Germantown, N.Y.). All animals were maintained under clean-room conditions in Micro-isolator cages with Alpha-dri bedding. They received sterile rodent chow and water ad libitum.
(§4) Subcutaneous Xenograft Model. Cell lines were grown in appropriate medium as described (See Section 6). Cells were harvested at or near confluency with 0.05% Trypsin-EDTA and pelleted at 450×g for 10 min. Pellets were resuspended in sterile PBS or media (without FBS) to a suitable concentration indicated in the Figure legends and the cells were implanted into the hindflank of mice. Tumor growth was measured over 3 to 6 weeks using venier calipers tumor volumes were calculated as a product of length x width x height unless otherwise indicated. P values were calculated using the Students' t-test. su101 in 50-100 uL excipient (dimethylsulfoxide, PBTE, PBTE6C:D5W, or PBTE:D5W) was delivered by IP injection at concentrations indicated in the Figure legends.

Calu-6 = assay: Tumor xenograft growth inhibition, Calu-6 (lung); type: in vivo, human
Excerpt: The ability of one of the compounds of the present invention, leflunomide (Compound 40), to inhibit ovarian, melanoma, prostate, lung and mammary tumor cell lines established as SC xenografts was examined. […]
as §2, §3, §4

PA-1 = assay: Tumor xenograft growth inhibition, PA-1 (ovarian); type: in vivo, human
Description: as §1, §2
Animals. Female athymic mice (BALB/c, nu/nu), BALB/c mice, Wistar rats and Fisher 344 rats were obtained from Simonsen Laboratories (Gilroy, Calif.). Female A/I mice were obtained from Jackson Laboratory (Bar Harbor, Me.). DA rats were obtained from B&K Universal, Inc. (Fremont, Calif.). Athymic R/Nu rats, DBA/2N mice, and BALB/c mice were obtained from Harlan Sprague Dawley (Indianapolis, Ind.). […]
Subcutaneous Xenograft Model. […] Tumor growth was measured over 3 to 6 weeks using venier calipers tumor volumes were calculated as a product of length x width x height unless otherwise indicated. P values were calculated using the Students' t-test. su101 in 50-100 uL excipient (dimethylsulfoxide, PBTE, PBTE6C:D5W, or PBTE:D5W) was delivered by IP injection at concentrations indicated in the Figure legends.

A375 = assay: Tumor xenograft growth inhibition, A375 (melanoma); type: in vivo, human; details: for % Inhibition (day): day 31
Description: as §1, §2, §3, §4

SMILES | inhibition of the "reddening" response and subsequent swelling [1] | IC50 (FLK-1 receptor) [µM] | % Inhibition (day) (PC-3; SCID (day 15), 12 mg/kg/day, day 36, P < 0.001) [%] | inhibition of the growth of human prostate (PC-3) (PC-3; in words) | % Inhibition (day) (PC-3; nu/nu, 20 mg/kg/day, day 45, P < 0.01) [%] | inhibition, CALU-6 (Calu-6; 20 mg/kg/day) [%] | inhibition of the growth of human lung (Calu-6) (Calu-6; in words) | % Inhibition (day) (Calu-6; nu/nu, 20 mg/kg/day, day 28, P < 0.0001) [%] | inhibition of the growth of human ovarian (PA-1) (PA-1; in words) | % Inhibition (day) (PA-1; nu/nu, 20 mg/kg/day, day 36, P < 0.04) [%] | % Inhibition (day) (A375; SCID (day 9), 15 mg/kg/day, P < 0.002) [%] | inhibition of the growth of human melanoma (A375) (A375; in words) | % Inhibition (day) (A375; nu/nu, 20 mg/kg/day, P < 0.03) [%]
COc1cc2ncnc(Nc3ccc(I)cc3)c2cc1OC [Compound 15, 4-(4-iodophenylamino)-6,7-dimethoxy quinazoline] | inhibited the "reddening" response and subsequent swelling | – | – | – | – | – | – | – | – | – | – | – | –
Cc1oncc1C(=O)Nc1ccc(C(F)(F)F)cc1 [Compound 40, leflunomide] | – | 54 | 47 | effectively inhibited the growth | 71 | 63.9 | effectively inhibited the growth | 64 | effectively inhibited the growth | 53 | 53 | effectively inhibited the growth | 53
CC(C)c1cc(/C=C(\C#N)C(=O)NCCCc2ccccc2)cc(C(C)C)c1O [Compound 5] | inhibited the "reddening" response and subsequent swelling | 0.7 | – | – | – | – | – | – | – | – | – | – | –
